# From patent US12180252B2, “Peptide derived from PEP27 peptide and uses thereof” (priority 2021, dated 2024)
# Read-outs that look alike come from different tables or passages of the source. Where a SMILES comes first, the peptide text is derived from it.
# Legend:
# [1] = system: B. subtilis KCTC1998; type: cell-based, Bacillus subtilis; conditions: KCTC1998, 18 h
# Description: (§1) In order to evaluate the antimicrobial activity of the peptides prepared by the method of above 1, a minimal inhibitory concentration (MIC) value as the minimum concentration of a peptide, in which cells are not divided, was measured.
# (§2) Specifically, the strains shown in Table 3 below were purchased, cultured in a medium having a constitutional composition suitable for each strain to a mid-log phase, and then diluted to a concentration of 2×10^4 cells/100 μl to prepare the product on a micro-titration plate (Nunc, USA). Then, PEP27, PEP27-1, PEP27-2 or PEP27-5 peptide synthesized in the above 1 was added to each well by serial dilution ½ times, followed by incubation at 37° C. for 18 hours.
# [2] = system: P. aeruginosa ATCC27853; test: microbe, parasite or virus in culture; conditions: ATCC27853, 18 h
# Description: as §1, §2
# (§3) Specifically, subject strains were prepared by the method of above 2, and were treated with the antibiotics, that is, meropenem, ceftazidime, ceftriaxone or vancomycin, respectively, followed by determining MICs of the antibiotics.
# [3] = system: S. aureus ATCC29213; test: microbe, parasite or virus in culture; conditions: ATCC29213, 18 h
# Description: as §1, §2, §3
# [4] = system: S. aureus CCARM3090; test: microbe, parasite or virus in culture; conditions: S. aureus CCARM3090, antibiotics-tolerant; 37° C., 18 hours
# Description: as §1, §2, §3
# [5] = system: P. aeruginosa ATCC15692; test: microbe, parasite or virus in culture; conditions: ATCC15692, 18 h
# Description: as §1, §2, §3
# [6] = system: P. aeruginosa 4891; test: microbe, parasite or virus in culture; conditions: 4891, 18 h
# Description: as §1, §2, §3
# [7] = system: S. aureus CCARM3518; test: microbe, parasite or virus in culture; conditions: S. aureus CCARM3518, antibiotics-tolerant; 37° C., 18 hours
# Description: as §1, §2, §3
# [8] = system: P. aeruginosa 4007; test: microbe, parasite or virus in culture; conditions: 4007, 18 h
# Description: as §1, §2, §3
# [9] = system: S. aureus ATCC25923; test: microbe, parasite or virus in culture; conditions: ATCC25923, 18 h
# Description: as §1, §2, §3
# [10] = system: S. aureus MW2; test: microbe, parasite or virus in culture; conditions: S. aureus MW2, antibiotics-tolerant; 37° C., 18 hours
# Description: as §1, §2, §3
# [11] = system: S. aureus USA300; test: microbe, parasite or virus in culture; conditions: S. aureus USA300, antibiotics-tolerant; 37° C., 18 hours
# Description: as §1, §2, §3
# [12] = system: S. aureus CCARM3089; test: microbe, parasite or virus in culture; conditions: S. aureus CCARM3089, antibiotics-tolerant; 37° C., 18 hours
# Description: as §1, §2, §3
# [13] = system: L. monocytogens KCTC3710; type: cell-based, Listeria monocytogenes; conditions: KCTC3710, 18 h
# Description: as §1, §2
# [14] = system: Sa. typhimurium CCARM8009; type: cell-based, Salmonella typhimurium; conditions: Sa. typhimurium CCARM8009, antibiotics-tolerant; 37° C., 18 hours
# Description: as §1, §2
# [15] = system: Sa. typhimurium CCARM8007; type: cell-based, Salmonella typhimurium; conditions: Sa. typhimurium CCARM8007, antibiotics-tolerant; 37° C., 18 hours
# Description: as §1, §2
# [16] = system: Sa. typhimurium KCTC1926; type: cell-based, Salmonella typhimurium; conditions: KCTC1926, 18 h
# Description: as §1, §2
# [17] = MTT cytotoxicity; type: cell-based, human; conditions: human; 100 μM, 24 h, MTT, HaCaT and MCF-7 cells; read-out: cell viability
# Description: Specifically, Thiazolyl blue tetrazolium bromide (MTT, Merck KGaA) was used to determine the cytotoxicity of PEP27 and its analogs against HaCaT (human keratinocyte […], n=4 per condition) and MCF-7 (human breast adenocarcinoma, n=3 per condition) cells. The cells were cultured in Dulbecco's modified Eagle's medium (DMEM) supplemented with 10 heat-inactivated fetal bovine serum (FBS, Gibco, Grand Island, NY, USA) and 1% penicillin-streptomycin (Gibco) at a density of 2×10^4 cells/well (96-well plate). Peptides were then added at various concentrations and incubated for 24 h at 37° C., after which MTT (final concentration, 0.5 mg/mL) was added to each well and incubated for 4 h. The formazan product was solubilized in DMSO, and the absorbance at 570 nm was measured to […] cytotoxicity. Cells treated with 0.1% Triton X-100 were used as the 100% cytotoxic control sample.
# [18] = system: E. coli CCARM1229; type: cell-based, Escherichia coli; conditions: E. coli CCARM1229, antibiotics-tolerant; 37° C., 18 hours
# Description: as §1, §2
# [19] = system: E. coli CCARM1238; type: cell-based, Escherichia coli; conditions: E. coli CCARM1238, antibiotics-tolerant; 37° C., 18 hours
# Description: as §1, §2
# [20] = system: E. coli ATCC25922; type: cell-based, Escherichia coli; conditions: ATCC25922, 18 h
# Description: as §1, §2
# [21] = system: E. coli ATCC27325; type: cell-based, Escherichia coli; conditions: ATCC27325, 18 h
# Description: as §1, §2
# [22] = system: red blood cells of a rat (Balb/c); conditions: 37° C., 1 hour
# Description: In order to compare the cytotoxicity of the peptides prepared by the method of above 1, erythrocyte hemolytic activity of each of the synthesized peptides was measured.
# Specifically, red blood cells of a rat (Balb/c, 6 weeks old, female) were diluted with PBS (pH 7.0) to a concentration of 8%, and PEP27, PEP27-1, PEP27-2 and PEP27-5 peptides were used for treatment of the cells at concentrations of 3.13, 6.25, 12.5, 25.01 50.0 and 100.0 μM/well, respectively, followed by reaction at 37° C. for 1 hour. Then, an amount of hemoglobin contained in the supernatant obtained by centrifugation at 1,000×g was determined by measuring the absorbance at a wavelength of 414 nm. As a control which is a standard for the degree of cell destruction, the absorbance of the obtained supernatant was measured after treatment using 1% Triton X-100 (Sigma, USA) and reaction at 37° C. for 1 hour. With reference to 100% erythrocytes hemolysis activity, hemolysis of each peptide was calculated from the measured absorbance using Equation 1 below. Erythrocyte destruction ability (%)=(Absorbance A−Absorbance B)/(Absorbance C−Absorbance B)×100 [Equation 1]
# (wherein, absorbance A represents the absorbance of a reaction solution treated with each peptide measured at a wavelength of 414 nm; absorbance B represents the absorbance of a reaction solution treated with PBS measured at a wavelength of 414 nm; and absorbance C represents the absorbance of a reaction solution treated with 1% Triton X-100 measured at a wavelength of 414 nm).
# [23] = Calcein release from LUVs; conditions: peptide-to-lipid (P/L) ratio 0.2; PE/PG and PC/CH/SM liposomes; 100% = 0.1% Triton X-100
# Description: To examine the mechanism of action of PEP27 and PEP27-2, we evaluated the changes in bacterial cell membrane permeability by monitoring the release of calcein, a fluorescent marker, from calcein entrapped LUVs with different lipid bilayer compositions.
# Peptide-induced membrane permeabilization was quantified by monitoring calcein release from LUVs (n=3 per condition). Different calcein-entrapped LUVs [PE/PG (7/3) or PC/CH/SM (1/1/1)] were prepared as described above, except that the dry lipid films were resuspended in 1 mL of PBS (pH 7.2) containing 70 mM calcein. Gel filtration chromatography on a Sephadex G-50 column was performed to separate free calcein from that entrapped in LUVs. Thereafter, the LUVs with entrapped calcein were mixed with peptides at various ratios, and the fluorescence of the released calcein was measured with a SpectraMax M3 Multi-Mode Microplate Reader (Molecular Devices, Sunnyvale, CA, USA) at excitation and emission wavelengths of 480 and 520 nm, respectively.
# [24] = system: plasmid DNA (pRSETB); test: Peptide-DNA binding by agarose gel electrophoresis; conditions: peptide/DNA ratios 0.25:1 to 4:1, 300 ng plasmid DNA
# Description: Specifically, 300 ng of plasmid DNA (pRSETB) was reacted with the peptide by a relative ratio (reactions were performed at peptide/DNA ratios of DNA alone, 0.25:1, 0.5:1, 1:1, 1.5:1, 2:1, 3:1, 4:1, respectively) at 37° C. for 10 minutes, followed by conducting electrophoresis on a 1% agarose gel, staining the same with ethidium bromide (EtBr) and monitoring through UV.
# [25] = system: E. coli; test: Flow cytometry, propidium iodide staining; type: cell-based, Escherichia coli
# Description: In order to confirm whether the peptide prepared by the method of above 1 acts on the bacterial membrane, PEP27-2 peptide having better antimicrobial activity than the parental peptide was analyzed through flow cytometry.
# Thereafter, the supernatant was removed using a centrifuge (10,000 rpm) and stained with propidium iodide (PI) at a concentration of 10 μg/ml at 4° C. for 30 minutes. Then, the unbound propidium iodide (PI) was removed using the centrifuge, and 1 ml of physiological saline (PBS) was added to remove agglomeration of the cells. Thereafter, effects of the peptide on the bacterial membrane were determined using a Bechman flow cytometer.
# [26] = Peptide concentration 100 μM, 100% = 1% Triton X-100
smiles,measurement,setting,value
CSCC[C@H](N)C(=O)N[C@@H](Cc1c[nH]c2ccccc12)C(=O)N[C@@H](CCCCN)C(=O)N[C@@H](Cc1c[nH]c2ccccc12)C(=O)N[C@@H](Cc1ccccc1)C(=O)N[C@@H](Cc1c[nH]cn1)C(=O)N[C@@H](CC(N)=O)C(=O)N[C@H](C(=O)N[C@@H](CC(C)C)C(=O)N[C@@H](CO)C(=O)N[C@@H](CO)C(=O)NCC(=O)N[C@@H](CCC(N)=O)C(=O)N[C@@H](CC(C)C)C(=O)N[C@@H](CC(C)C)C(=O)N[C@@H](C)C(=O)N[C@@H](CC(=O)O)C(=O)N[C@@H](CCCCN)C(=O)N[C@@H](Cc1c[nH]c2ccccc12)C(=O)N[C@@H](Cc1c[nH]c2ccccc12)C(=O)N[C@@H](C)C(=O)N[C@@H](Cc1c[nH]c2ccccc12)C(=O)N[C@@H](Cc1c[nH]c2ccccc12)C(=O)N[C@@H](Cc1ccc(O)cc1)C(=O)N[C@@H](CC(N)=O)C(=O)N[C@@H](Cc1c[nH]c2ccccc12)C(=O)N[C@@H](Cc1c[nH]c2ccccc12)C(N)=O)C(C)C [PEP27-5] (H-MWKWFHNVLSSGQLLADKWWAWWYNWW-NH2),Minimal inhibitory concentration,[1],>64 µM
same,Minimal inhibitory concentration,[2],>64 µM
same,Minimal inhibitory concentration,[3],>64 µM
same,Minimal inhibitory concentration,[4],>64 µM
same,Minimal inhibitory concentration,[5],>64 µM
same,Minimal inhibitory concentration,[6],>64 µM
same,Minimal inhibitory concentration,[7],>64 µM
same,Minimal inhibitory concentration,[8],>64 µM
same,Minimal inhibitory concentration,[9],>64 µM
same,Minimal inhibitory concentration,[10],>64 µM
same,Minimal inhibitory concentration,[11],>64 µM
same,Minimal inhibitory concentration,[12],>64 µM
same,Minimal inhibitory concentration,[13],>64 µM
same,Minimal inhibitory concentration,[14],>64 µM
same,Minimal inhibitory concentration,[15],>64 µM
same,Minimal inhibitory concentration,[16],>64 µM
same,"viability at 24 h, 100 µM",[17],100%
same,Minimal inhibitory concentration,[18],>64 µM
same,Minimal inhibitory concentration,[19],>64 µM
same,Minimal inhibitory concentration,[20],>64 µM
same,Minimal inhibitory concentration,[21],>64 µM
same,Erythrocyte destruction ability,[22]; Peptide concentration 3.13 μM,0%
same,Erythrocyte destruction ability,[22]; Peptide concentration 6.25 μM,0%
same,Erythrocyte destruction ability,[22]; Peptide concentration 12.5 μM,0%
same,Erythrocyte destruction ability,[22]; Peptide concentration 25 μM,0%
same,Erythrocyte destruction ability,[22]; Peptide concentration 50 μM,2.34%
same,Erythrocyte destruction ability,[22]; [26],3.25%
CSCC[C@H](N)C(=O)N[C@@H](CCCNC(=N)N)C(=O)N[C@@H](CCCCN)C(=O)N[C@@H](CCC(=O)O)C(=O)N[C@@H](Cc1ccccc1)C(=O)N[C@@H](Cc1c[nH]cn1)C(=O)N[C@@H](CC(N)=O)C(=O)N[C@H](C(=O)N[C@@H](CC(C)C)C(=O)N[C@@H](CO)C(=O)N[C@@H](CO)C(=O)NCC(=O)N[C@@H](CCC(N)=O)C(=O)N[C@@H](CC(C)C)C(=O)N[C@@H](CC(C)C)C(=O)N[C@@H](C)C(=O)N[C@@H](CC(=O)O)C(=O)N[C@@H](CCCCN)C(=O)N[C@@H](CCCNC(=N)N)C(=O)N1CCC[C@H]1C(=O)N[C@@H](C)C(=O)N[C@@H](CCCNC(=N)N)C(=O)N[C@@H](CC(=O)O)C(=O)N[C@@H](Cc1ccc(O)cc1)C(=O)N[C@@H](CC(N)=O)C(=O)N[C@@H](CCCNC(=N)N)C(=O)N[C@@H](CCCCN)C(N)=O)C(C)C [PEP27] (H-MRKEFHNVLSSGQLLADKRPARDYNRK-NH2; N-terminus assumed),calcein leakage,[23],12%
same,binding to DNA (gel electrophoresis),[24],bound to DNA
same,bacterial membrane destruction,"[25]; E. coli, flow cytometry",without destruction of the E. coli membrane
same,PI-positive E. coli cells (membrane destruction ability),"[25]; at MIC, 37° C., 1 hour",19.9%
same,"viability at 24 h, 100 µM",[17],100%
same,Erythrocyte destruction ability,[22]; Peptide concentration 3.13 μM,0%
same,Erythrocyte destruction ability,[22]; Peptide concentration 6.25 μM,1.26%
same,Erythrocyte destruction ability,[22]; Peptide concentration 12.5 μM,1.79%
same,Erythrocyte destruction ability,[22]; Peptide concentration 25 μM,2.76%
same,Erythrocyte destruction ability,[22]; Peptide concentration 50 μM,3.64%
same,Erythrocyte destruction ability,[22]; [26],3.58%
